Measurements from patent publication US12185723B2, “Herbicidally active 3-phenylisoxazoline-5-carboxamides of s-containing cyclopentenylcarboxylic esters” (Bayer Aktiengesellschaft, priority 2019, dated 2025).

How the values were obtained:
Type in all cases: in vivo
Setaria viridis = experiment: Post-emergence herbicidal action against SETVI; conditions: visual rating about 3 weeks after treatment
Protocol: (§1) Post-Emergence Herbicidal Action Against Harmful Plants and Crop Plant Compatibility Seeds of monocotyledonous and dicotyledonous weeds and crop plants are placed in sandy loam in plastic or wood-fibre pots, covered with soil and cultivated in a greenhouse under controlled growth conditions. 2 to 3 weeks after sowing, the test plants are treated at the one-leaf stage. The compounds of the invention, formulated in the form of wettable powders (WP) or as emulsion concentrates (EC), are then sprayed onto the green parts of the plants as aqueous suspension or emulsion with addition of 0.5% additive at a water application rate of 600 l/ha (converted). After the test plants have been kept in the greenhouse under optimum growth conditions for about 3 weeks, the activity of the preparations is rated visually in comparison to untreated controls. For example, 100% activity=the plants have died, 0% activity=like control plants. [table]

Veronica persica = experiment: Post-emergence herbicidal action against VERPE
Protocol: as §1

Avena fatua = experiment: Post-emergence herbicidal action against AVEFA; conditions: visual rating about 3 weeks after treatment
Protocol: as §1

Stellaria media = experiment: Post-emergence herbicidal action against STEME; conditions: 80 g a.i./ha
Protocol: as §1

Hordeum murinum = experiment: Post-emergence herbicidal action against HORMU
Protocol: as §1

Alopecurus myosuroides = experiment: Post-emergence herbicidal action against ALOMY; conditions: visual rating about 3 weeks after treatment
Protocol: as §1

Lolium rigidum = experiment: Post-emergence herbicidal action against LOLRI; conditions: visual rating about 3 weeks after treatment
Protocol: as §1

Echinochloa crus-galli = experiment: Post-emergence herbicidal action against ECHCG; conditions: visual rating about 3 weeks after treatment
Protocol: as §1

Pharbitis purpurea = experiment: Post-emergence herbicidal action against PHBPU; conditions: 20 g a.i./ha
Protocol: as §1

Matricaria inodora = experiment: Post-emergence herbicidal action against MATIN; conditions: 20 g a.i./ha
Protocol: as §1

Amaranthus retroflexus = experiment: Post-emergence herbicidal action against AMARE; conditions: 20 g a.i./ha
Protocol: as §1

Polygonum convolvulus = experiment: Post-emergence herbicidal action against POLCO; conditions: 20 g a.i./ha
Protocol: as §1

DIGSA = experiment: Post-emergence herbicidal action against DIGSA; conditions: visual rating about 3 weeks after treatment
Protocol: as §1, with “plants.” for “plants. [table]”

Abutilon theophrasti = experiment: Post-emergence herbicidal action against ABUTH; conditions: 20 g a.i./ha, visual rating about 3 weeks after treatment
Protocol: as §1

SMILES | Herbicidal action against [%] VERPE (Veronica persica; 20 g a.i./ha) | Herbicidal action against [%] PHBPU (Pharbitis purpurea) | Herbicidal action against [%] AVEFA (Avena fatua; 20 g a.i./ha) | Herbicidal action against [%] MATIN (Matricaria inodora) | Herbicidal action against [%] ALOMY (Alopecurus myosuroides; 20 g a.i./ha) | Herbicidal action against [%] AMARE (Amaranthus retroflexus) | Herbicidal action against [%] LOLRI (Lolium rigidum; 20 g a.i./ha) | Herbicidal action against [%] ECHCG (Echinochloa crus-galli; 20 g a.i./ha) | Herbicidal action against [%] POLCO (Polygonum convolvulus) | Herbicidal action against [%] SETVI (Setaria viridis; 20 g a.i./ha) | Herbicidal action against [%] DIGSA (DIGSA; 20 g a.i./ha) | Herbicidal action against [%] ABUTH (Abutilon theophrasti) | other results
C=CC1(C(=O)NC2C=CC(C(=O)OCCSC)C2)CC(c2cc(C)cc(C)c2)=NO1 (mixture of isomers) [Example I-45] | 80% |  |  |  |  |  |  |  |  |  |  |  | Herbicidal action against [%] SETVI (Setaria viridis; 80 g a.i./ha): 80%; Herbicidal action against [%] VERPE (Veronica persica; 80 g a.i./ha): 80%; Herbicidal action against [%] AVEFA (Avena fatua; 80 g a.i./ha): 80%; Herbicidal action against [%] STEME (Stellaria media): 90%; Herbicidal action against [%] HORMU (Hordeum murinum; 20 g a.i./ha): 80%; Herbicidal action against [%] HORMU (Hordeum murinum; 80 g a.i./ha): 80%; Herbicidal action against [%] ALOMY (Alopecurus myosuroides; 80 g a.i./ha): 90%; Herbicidal action against [%] LOLRI (Lolium rigidum; 80 g a.i./ha): 90%; Herbicidal action against [%] ECHCG (Echinochloa crus-galli; 80 g a.i./ha): 80%
C[S+]([O-])CCOC(=O)C1C=CC(NC(=O)C2(C)CC(c3cc(F)cc(F)c3)=NO2)C1 (mixture of isomers) [Example I-66] |  | 80% | 80% | 80% | 90% | 80% | 80% | 80% | 80% |  |  |  | 
CCS(=O)(=O)CCOC(=O)C1C=CC(NC(=O)C2(C)CC(c3cc(F)cc(F)c3)=NO2)C1 (stereo not drawn) [Example I-01] | 80% | 80% | 90% |  | 90% | 90% | 100% | 90% | 90% | 90% | 90% | 90% | 
CN(C)C(=O)SCCOC(=O)C1C=CC(NC(=O)C2(C)CC(c3cc(F)cc(F)c3)=NO2)C1 (stereo not drawn) [Example I-04] | 80% | 80% | 80% |  | 100% |  |  | 80% |  | 80% | 80% | 80% | 
CC1(C(=O)NC2C=CC(C(=O)OCCSCc3ccc(F)cc3)C2)CC(c2cc(F)cc(F)c2)=NO1 (stereo not drawn) [Example I-09] | 90% | 80% | 90% |  | 90% | 90% | 90% | 90% | 80% | 90% | 90% | 80% | 
CC1(C(=O)NC2C=CC(C(=O)OCCSCC(F)(F)F)C2)CC(c2cc(F)cc(F)c2)=NO1 (stereo not drawn) [Example I-12] |  | 80% |  | 80% | 90% |  | 80% | 80% | 80% | 80% | 80% |  | 
CC1(C(=O)NC2C=CC(C(=O)OCCSC(F)(F)F)C2)CC(c2cc(F)cc(F)c2)=NO1 (stereo not drawn) [Example I-13] | 80% |  | 90% | 80% | 90% |  | 80% |  |  | 80% | 80% | 80% | 
CCSCCOC(=O)C1C=CC(NC(=O)C2(OC)CC(c3cc(F)cc(F)c3)=NO2)C1 (stereo not drawn) [Example I-22] | 90% | 80% | 90% |  | 90% | 80% | 90% | 80% |  | 90% | 90% | 80% | 
COC1(C(=O)NC2C=CC(C(=O)OCCSC(C)C)C2)CC(c2cc(F)cc(F)c2)=NO1 (stereo not drawn) [Example I-25] | 80% | 80% | 90% |  | 90% | 80% | 90% | 80% | 80% | 90% | 90% | 80% | 
C=CC1(C(=O)NC2C=CC(C(=O)OCCSC)C2)CC(c2cc(F)cc(C#N)c2)=NO1 (stereo not drawn) [Example I-39] | 90% | 80% | 90% |  | 90% | 80% | 90% | 90% | 80% | 90% | 90% | 80% | 
CSCCOC(=O)C1C=CC(NC(=O)C2(C)CC(c3cccc(C#N)c3)=NO2)C1 (stereo not drawn) [Example I-41] |  |  | 90% |  | 80% |  |  |  |  | 80% |  |  | Herbicidal action against [%] SETVI (Setaria viridis; 80 g a.i./ha): 80%; Herbicidal action against [%] DIGSA (DIGSA; 80 g a.i./ha): 80%; Herbicidal action against [%] VERPE (Veronica persica; 80 g a.i./ha): 80%; Herbicidal action against [%] AVEFA (Avena fatua; 80 g a.i./ha): 100%; Herbicidal action against [%] STEME (Stellaria media): 80%; Herbicidal action against [%] HORMU (Hordeum murinum; 20 g a.i./ha): 80%; Herbicidal action against [%] HORMU (Hordeum murinum; 80 g a.i./ha): 90%; Herbicidal action against [%] LOLRI (Lolium rigidum; 80 g a.i./ha): 80%
CSCCOC(=O)C1C=CC(NC(=O)C2(CCl)CC(c3cc(C)cc(F)c3)=NO2)C1 (stereo not drawn) [Example I-57] |  |  |  | 80% | 80% |  |  |  |  |  |  |  | 
CSCCOC(=O)C1C=CC(NC(=O)C2(CF)CC(c3cc(F)cc(C#N)c3)=NO2)C1 (stereo not drawn) [Example I-65] | 80% |  | 80% | 80% | 90% | 80% | 80% | 80% | 90% |  |  | 80% | 
CSCCOC(=O)C1C=CC(NC(=O)C2(C)CC(c3cc(C)cc(Cl)c3)=NO2)C1 (stereo not drawn) [Example I-75] | 80% | 80% | 80% |  | 90% |  |  | 90% |  | 90% | 90% | 80% | 
